Source: PMC12563652 (International Journal of Molecular Sciences, 2025)
Like-named read-outs stand apart in the source and are kept apart here.

How the values were obtained:
HEPG2 cell line [1] = experiment: Cell viability assay (PrestoBlue, metabolic function), HepG2; format: cell-based, human; settings: 24 h, mean
Method: (§1) Prior to investigating the biological activity and molecular characteristics of the test compounds in vitro, a comprehensive cytotoxicity screening was performed using HepG2 and 3T3-L1 cell lines. Two complementary assays were applied: one based on the quantification of adenylate kinase release as an indicator of cell membrane damage, and another relying on resazurin reduction to assess cellular metabolic activity. These complementary assays enable sensitive and reliable detection of cytotoxic effects across diverse cell types. This preliminary assessment was carried out to ensure that subsequent functional analyses would not be confounded by nonspecific cytotoxic effects.
Cell viability was measured using PrestoBlue reagent (Thermo Fisher Scientific, Waltham, MA, USA), following the manufacturer’s instructions. After 24 h of compound treatment, PrestoBlue reagent was added to each well at 10% of the remaining medium volume. The plate was incubated at 37 °C for 15 min, and fluorescence was measured using the POLARstar Omega plate reader (excitation 530 nm, emission 580 nm). Results were expressed as a percentage of viable cells relative to the DMSO-treated control.

C57BL/6 mice = experiment: Inhibition of gastric emptying (mouse model, phenol red); format: in vivo
Method: Fifty male C57BL/6 mice (22–27 g) were housed in standard cages while maintaining a 12:12-h light/dark cycle, with food and water available ad libitum. The experimental procedures were performed from 10:00 a.m. to 14:00 p.m.
The experiment was conducted according to Miyasaka et al. and Kotańska et al., with some minor modifications. Mice were subjected to a 20 h food deprivation and a 2 h water deprivation prior to testing. The animals received a vehicle (0.25 mL/mouse) alone or along with various compounds: JP-14 (10 mg/kg b. w.), RT (5 mg/kg body weight), metformin (100 mg/kg b. w.), or loperamide (reference compound; 10 mg/kg b. w.) via gastric gavage. Following a 45 min interval, phenol red (0.5 mL, 0.05% w/v) combined with glucose (1 g/kg body weight) was administered through the same route. Additionally, each group received an intraperitoneal injection of heparin (2500 U/mouse) 20 min prior to the collection of stomach contents. Seven mice treated with the vehicle were sacrificed immediately after the phenol red administration to serve as a standard control (representing 100% phenol red in the stomach at 0 min), establishing a baseline for maximum absorbance (100%). The leftover mice were sacrificed 30 min later. The stomachs were removed and homogenized using an OMNI homogenizer (OMNI International Company, Kennesaw, GA, USA), with 10 mL of 0.1 N NaOH. To 5 mL of homogenate, 0.5 mL of 20% w/v solution of trichloroacetic acid was incorporated to precipitate the proteins. Subsequently, the samples were centrifuged at 600× g for 15 min at a temperature of 20 °C, and 0.25 mL of supernatant was mixed with 1 mL of 0.5 N NaOH to achieve maximum color intensity. The concentration of phenol red was measured using spectrophotometry, with absorbance evaluated at a wavelength of 560 nm (MuLTISKAN.GO, Thermo Fisher Scientific Inc., Waltham, MA USA). For each mouse, the percentage of gastric emptying (GE %) was calculated using the following equation:(1) GE%=(Ac0−Ab)/(Ac0−Ac30)×100% where: Ac0 is the absorbance of the control gastric sample collected immediately after dye administration, and Ac30 is the absorbance of the control gastric sample collected 30 min after dye administration, i.e., Ac0–Ac30 = 100% gastric emptying.

[2] = target: T1, 5-HT2C serotoninergic receptor (Homo sapiens, UniProt P28335); experiment: 5-HT2C intrinsic activity, agonist mode (AequoScreen calcium mobilization); format: cell-based; settings: n.a. = no activity at 10–5 M
T1 sequence (P28335 33-458): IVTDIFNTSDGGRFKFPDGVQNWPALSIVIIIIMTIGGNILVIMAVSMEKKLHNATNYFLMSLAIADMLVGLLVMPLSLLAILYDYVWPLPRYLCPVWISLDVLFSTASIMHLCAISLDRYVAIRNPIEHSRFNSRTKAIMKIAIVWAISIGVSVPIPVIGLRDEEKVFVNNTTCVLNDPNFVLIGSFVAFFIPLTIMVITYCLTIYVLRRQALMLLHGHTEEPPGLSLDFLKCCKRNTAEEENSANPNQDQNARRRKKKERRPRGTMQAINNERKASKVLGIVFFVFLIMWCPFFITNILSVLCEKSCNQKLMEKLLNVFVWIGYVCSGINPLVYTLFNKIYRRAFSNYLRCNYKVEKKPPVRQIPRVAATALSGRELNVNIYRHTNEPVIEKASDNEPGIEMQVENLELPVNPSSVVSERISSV
Method: The determination of intrinsic activity will be performed in accordance with the manufacturer’s Aequoscreen methodology—Perkin Elmer.
The cell density in the 96-well format was 5000 cells per well. Cell preparation for the assay was performed according to the manufacturer’s instructions for AequoScreen (PerkinElmer, Waltham, MA, USA). […] The cells suspension was applied onto the ligands with the injectors of the POLARstar optima reader (BMG Labtech, Ortenberg, Germany). […] The concentration and dilution series having four replicates were prepared as instructed in the AequoScreen Starter Kit Manual (PerkinElmer, Waltham, MA, USA). The wells received cell injections along with either the standard agonist or the compounds being evaluated, while the POLARstar optima reader documented the emitted light over a duration of 20 s. In the antagonist evaluation, cells were administered (50 μL) into the assay plate alongside antagonist solutions (50 μL).

HEPG2 cell line [3] = format: cell-based; settings: human, 24 h
Method: as §1
(§2) The damage of cell membrane was evaluated with the ToxiLight BioAssay Kit from Lonza (Visp, Switzerland). This test is very sensitive and measures cell damage by looking at the release of adenylate kinase (AK). After 24 h of treatment, 5 µL of culture supernatant was transferred to a 384-well white plate (PerkinElmer, Singapore), followed by the addition of 20 µL of Adenylate Kinase Detection Reagent (AKDR). After a 10 min incubation at room temperature, luminescence was measured using the POLARstar Omega plate reader (BMG Labtech, Ortenberg, Germany). Results were expressed as a percentage relative to a lysed control (100% cell death).

3T3L1 cell line = format: cell-based; settings: mouse, 24 h
Method: as §1, §2

## [H]/N=C(\N)NN=Cc1c(Cl)cncc1Cl [JP-14, (E)-2-((3,5-Dichloropyridin-4-yl)Methylene)Hydrazine-1-Carboximidamide]
HEPG2 cell line [1]; Table S4, 0.1 μM
  cellular metabolic function, percentage relative to control (live cells): 96%
HEPG2 cell line [1]; Table S4, 1 μM
  cellular metabolic function, percentage relative to control (live cells): 101%
HEPG2 cell line [1]; Table S4, 10 μM
  cellular metabolic function, percentage relative to control (live cells): 95%
HEPG2 cell line [1]; Table S4, 50 μM
  cellular metabolic function, percentage relative to control (live cells): 71%
HEPG2 cell line [1]; Table S4, 100 μM
  cellular metabolic function, percentage relative to control (live cells): 60%
C57BL/6 mice; JP-14 10 mg/kg + RTI-7470-44 5 mg/kg b.w.
  reduction of the effect of JP-14 on gastric emptying by RTI-7470-44: about 40%
C57BL/6 mice; JP-14 10 mg/kg b.w. combined with RTI-7470-44 5 mg/kg b.w.
  percentage inhibition of gastric emptying: about 25%
C57BL/6 mice; intragastric, 10 mg/kg b.w.
  percentage inhibition of gastric emptying: about 66%
[2]
  5-HT2C Ago EC50: did not exhibit any measurable agonistic or antagonistic activity
HEPG2 cell line [3]; 0.1 μM
  membrane integrity, percentage relative to control (death cells): 6%
HEPG2 cell line [3]; 1 μM
  membrane integrity, percentage relative to control (death cells): 6%
HEPG2 cell line [3]; 10 μM
  membrane integrity, percentage relative to control (death cells): 6%
HEPG2 cell line [3]; 50 μM
  membrane integrity, percentage relative to control (death cells): 10%
HEPG2 cell line [3]; 100 μM
  membrane integrity, percentage relative to control (death cells): 8%
3T3L1 cell line; 0.1 μM
  membrane integrity, percentage relative to control (death cells): 6%
3T3L1 cell line; 1 μM
  membrane integrity, percentage relative to control (death cells): 6%
3T3L1 cell line; 10 μM
  membrane integrity, percentage relative to control (death cells): 5%
3T3L1 cell line; 50 μM
  membrane integrity, percentage relative to control (death cells): 4%
3T3L1 cell line; 100 μM
  membrane integrity, percentage relative to control (death cells): 5%
